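The compound was tested at five concentrations on cells cultured in 96-well plates, with a 48-hour exposure period. GI50: concentration for 50% inhibition of growth.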 The source made the active and inactive calls. Cut-off read from the data, not from the text of the source: active = GI50 up to about 1.1 µM and inactive = higher. Residues, ends and D or L forms follow the SMILES beside them. *: point of attachment. Boc = CC(C)(C)OC(=O)*; OBn = c1ccc(CO*)cc1
Experiments:
Experiment in all cases: NCI tumour cell line growth inhibition, 48 h
EKVX = system: EKVX
SN12C = system: SN12C
SW-620 = system: SW-620
SR = system: SR
BT-549 = system: BT-549
A498 = system: A498
Hs-578T = system: Hs-578T
SF-295 = system: SF-295
M14 = system: M14
LOX IMVI = system: LOX IMVI
MCF7 = system: MCF7
UO-31 = system: UO-31
HCT-116 = system: HCT-116
K562 = system: K562
NCI-H522 = system: NCI-H522
DU-145 = system: DU-145
HT-29 = system: HT-29
SF-539 = system: SF-539
HCC 2998 = system: HCC 2998

| SMILES | GI50 (EKVX) | GI50 (SN12C) | GI50 (SW-620) | GI50 (SR) | GI50 (BT-549) | GI50 (A498) | GI50 (Hs-578T) | GI50 (SF-295) | GI50 (M14) | GI50 (LOX IMVI) | GI50 (MCF7) | GI50 (UO-31) | GI50 (HCT-116) | GI50 (K562) | GI50 (NCI-H522) | GI50 (DU-145) | GI50 (HT-29) | GI50 (SF-539) | GI50 (HCC 2998) |
| --- | --- | --- | --- | --- | --- | --- | --- | --- | --- | --- | --- | --- | --- | --- | --- | --- | --- | --- | --- |
| O=S(=O)(c1ccc(Br)cc1)N1CCN(S(=O)(=O)c2ccc(Br)cc2)CC1 | > 100 µM (inactive) | > 100 µM (inactive) | > 100 µM (inactive) | 0.0703 µM (active) | > 100 µM (inactive) | > 100 µM (inactive) | > 100 µM (inactive) | > 100 µM (inactive) | > 100 µM (inactive) | > 100 µM (inactive) | > 100 µM (inactive) | > 100 µM (inactive) | > 100 µM (inactive) | 5.87 µM (inactive) | > 100 µM (inactive) | > 100 µM (inactive) | > 100 µM (inactive) |  |  |
| C=C1C(=O)[C@@]23CC[C@@H]4[C@@]5(C)CCC[C@@]4(OC5=O)[C@@]2(C)CC[C@@H]1C3 | 3.15 µM (inactive) | 3.3 µM (inactive) | 0.667 µM (active) | 0.955 µM (active) | 1.3 µM (inactive) | 3.24 µM (inactive) | 1.93 µM (inactive) | 5.06 µM (inactive) | 2.17 µM (inactive) | 0.422 µM (active) | 0.893 µM (active) | 1.9 µM (inactive) | 1.13 µM (inactive) | 0.667 µM (active) | 0.497 µM (active) | 3.78 µM (inactive) | 0.802 µM (active) | 2.12 µM (inactive) | 2.19 µM (inactive) |
| C/C(=N\Nc1cc(CN2CCCC2)c(-c2ccc(Cl)cc2)nn1)C(=O)O | > 100 µM (inactive) | > 100 µM (inactive) | > 100 µM (inactive) | > 100 µM (inactive) | > 100 µM (inactive) | > 100 µM (inactive) | > 100 µM (inactive) | > 100 µM (inactive) | > 100 µM (inactive) | > 100 µM (inactive) | > 100 µM (inactive) | > 100 µM (inactive) | > 100 µM (inactive) | > 100 µM (inactive) | > 100 µM (inactive) | > 100 µM (inactive) | > 100 µM (inactive) | > 100 µM (inactive) |  |
| CC[C@]12C=CCN3CCC4(c5cc(/N=N/c6ccccc6)c(OC)cc5N(C)[C@H]4[C@@](O)(C(=O)OC)[C@@H]1OC(C)=O)[C@@H]32 (stereo partly specified) | 16.5 µM (inactive) | 18.6 µM (inactive) | 23.1 µM (inactive) | 19.4 µM (inactive) | 17.1 µM (inactive) | 16.6 µM (inactive) | 17.8 µM (inactive) | 15.6 µM (inactive) | 20.6 µM (inactive) | 17.3 µM (inactive) | 16.3 µM (inactive) | 14.6 µM (inactive) | 16.4 µM (inactive) | 18.8 µM (inactive) | 16.1 µM (inactive) | 17.6 µM (inactive) | 16.3 µM (inactive) | 21 µM (inactive) | 17.9 µM (inactive) |
| COC(=O)C1(Cc2ccccc2)Cc2ccccc2C1O (stereo unspecified) | 65 µM (inactive) | > 100 µM (inactive) | > 100 µM (inactive) | 92.9 µM (inactive) | > 100 µM (inactive) | > 100 µM (inactive) | 55.1 µM (inactive) | > 100 µM (inactive) |  | > 100 µM (inactive) | > 100 µM (inactive) | 62.4 µM (inactive) | > 100 µM (inactive) | > 100 µM (inactive) | 56.8 µM (inactive) | > 100 µM (inactive) | > 100 µM (inactive) | > 100 µM (inactive) | > 100 µM (inactive) |
| O=C(O)C1C2CCC(O2)C1C(=O)Nc1cccc2cccnc12 (stereo unspecified) | > 100 µM (inactive) | > 100 µM (inactive) | > 100 µM (inactive) | > 100 µM (inactive) | > 100 µM (inactive) | > 100 µM (inactive) | 93.5 µM (inactive) | > 100 µM (inactive) | > 100 µM (inactive) | > 100 µM (inactive) | > 100 µM (inactive) | > 100 µM (inactive) | > 100 µM (inactive) | > 100 µM (inactive) | 88.5 µM (inactive) | > 100 µM (inactive) | > 100 µM (inactive) |  | 31.1 µM (inactive) |
| COc1ccccc1OC(=O)/C=C/c1ccccc1 | > 100 µM (inactive) | > 100 µM (inactive) | > 100 µM (inactive) | > 100 µM (inactive) | > 100 µM (inactive) | > 100 µM (inactive) | > 100 µM (inactive) | 40.2 µM (inactive) | > 100 µM (inactive) | > 100 µM (inactive) | > 100 µM (inactive) | > 100 µM (inactive) | > 100 µM (inactive) |  | > 100 µM (inactive) | > 100 µM (inactive) | > 100 µM (inactive) | > 100 µM (inactive) | > 100 µM (inactive) |
| COc1nc2ncc([C@@H](O)[C@H](O)CO)nc2c(=O)n1C | > 100 µM (inactive) | > 100 µM (inactive) | > 100 µM (inactive) | > 100 µM (inactive) | > 100 µM (inactive) | > 100 µM (inactive) | > 100 µM (inactive) | > 100 µM (inactive) | > 100 µM (inactive) | > 100 µM (inactive) | > 100 µM (inactive) | > 100 µM (inactive) | > 100 µM (inactive) | > 100 µM (inactive) | > 100 µM (inactive) | > 100 µM (inactive) | > 100 µM (inactive) | > 100 µM (inactive) |  |
| COc1ccc(/N=N/C(=N/NC(=O)c2ccccc2)c2ccc(N(CCC#N)CCC#N)cc2C)cc1 | 97.9 µM (inactive) | 56.1 µM (inactive) |  | 6.19 µM (inactive) | 52.4 µM (inactive) | 25.6 µM (inactive) | 23.4 µM (inactive) | 21.5 µM (inactive) | 50.5 µM (inactive) |  | 18.5 µM (inactive) | 52 µM (inactive) | 29.9 µM (inactive) | 19.5 µM (inactive) | 10.7 µM (inactive) | 81.3 µM (inactive) | 17.9 µM (inactive) | 19.3 µM (inactive) | 12.4 µM (inactive) |
| CC(C)(C)OC(=O)NNCC(O)COc1ccccc1 (stereo unspecified) | > 100 µM (inactive) | > 100 µM (inactive) | > 100 µM (inactive) | > 100 µM (inactive) | > 100 µM (inactive) | > 100 µM (inactive) | > 100 µM (inactive) | > 100 µM (inactive) | > 100 µM (inactive) | > 100 µM (inactive) | > 100 µM (inactive) | > 100 µM (inactive) | > 100 µM (inactive) | > 100 µM (inactive) | > 100 µM (inactive) | > 100 µM (inactive) | > 100 µM (inactive) | > 100 µM (inactive) | > 100 µM (inactive) |
| Cc1ccccc1C(O)(c1nccn1C)c1nccn1C | > 100 µM (inactive) | > 100 µM (inactive) | > 100 µM (inactive) | > 100 µM (inactive) | > 100 µM (inactive) | > 100 µM (inactive) | > 100 µM (inactive) | > 100 µM (inactive) | > 100 µM (inactive) |  | > 100 µM (inactive) | > 100 µM (inactive) | > 100 µM (inactive) | > 100 µM (inactive) | > 100 µM (inactive) | > 100 µM (inactive) | > 100 µM (inactive) | > 100 µM (inactive) | > 100 µM (inactive) |
| NS(=O)(=O)c1nnc(NSc2ccc([N+](=O)[O-])cc2)s1 | > 100 µM (inactive) | > 100 µM (inactive) | > 100 µM (inactive) | 59.6 µM (inactive) | > 100 µM (inactive) | > 100 µM (inactive) | > 100 µM (inactive) | > 100 µM (inactive) | > 100 µM (inactive) | > 100 µM (inactive) | > 100 µM (inactive) | > 100 µM (inactive) | > 100 µM (inactive) | > 100 µM (inactive) | 23.7 µM (inactive) | > 100 µM (inactive) |  |  | > 100 µM (inactive) |
| CCN(CC)CCC(=O)/C=C/c1ccccc1 | 13.9 µM (inactive) | 15.5 µM (inactive) | 5.89 µM (inactive) | 3.41 µM (inactive) | 6.9 µM (inactive) | 17.8 µM (inactive) | 14 µM (inactive) | 18.8 µM (inactive) | 15.7 µM (inactive) | 2.54 µM (inactive) | 2.48 µM (inactive) | 13.1 µM (inactive) | 7.87 µM (inactive) | 3.05 µM (inactive) | 4.51 µM (inactive) | 22.5 µM (inactive) | 5.05 µM (inactive) | 19.9 µM (inactive) | 19.5 µM (inactive) |
| CC(NC(=O)CNC(=O)OC(C)(C)C)C(=O)NC(Cc1ccccc1)C(=O)OCc1ccccc1 (stereo not drawn) (Boc-Gly-Ala-Phe-OBn; configuration not given here) | > 100 µM (inactive) | > 100 µM (inactive) | > 100 µM (inactive) | 23.8 µM (inactive) | > 100 µM (inactive) | > 100 µM (inactive) | 11.2 µM (inactive) | > 100 µM (inactive) | > 100 µM (inactive) | 7.23 µM (inactive) | > 100 µM (inactive) | > 100 µM (inactive) | 14.9 µM (inactive) | 40.3 µM (inactive) | 68.4 µM (inactive) | > 100 µM (inactive) | 95.9 µM (inactive) | > 100 µM (inactive) |  |
| CC[C@@]1(O)C(=O)OCc2c1cc1n(c2=O)Cc2c-1nc1ccc(O)cc1c2[Si](C)(C)C(C)(C)C [AR-67] | 0.333 µM (active) | < 0.01 µM (active) | < 0.01 µM (active) | < 0.01 µM (active) | < 0.0157 µM (active) | 0.0211 µM (active) | 0.339 µM (active) |  | < 0.01 µM (active) | < 0.01 µM (active) | < 0.01 µM (active) | < 0.01 µM (active) | < 0.01 µM (active) | < 0.0219 µM (active) | < 0.01 µM (active) | < 0.01 µM (active) | 0.0855 µM (active) | < 0.01 µM (active) | 0.0205 µM (active) |

Reference: ChEMBL document CHEMBL1201862, “PubChem BioAssay data set” (2004)
